Experiments:
eIF4E W73A = target: T1, eIF4E W73A (Mus musculus, UniProt P63073, W73A); assay: tryptophan fluorescence quenching titration, dorsal surface mutant; assay type: binding; conditions: relative to wild-type eIF4E
T1 construct: made in house
Method: For fluorescence titrations, mouse eIF4E, which differs from human eIF4E by four nonconserved amino acids, was produced as described. For NMR spectroscopy, mouse eIF4E was expressed as a fusion with the B1 domain of protein G (G4E, kind gift of Gerhard Wagner, Harvard University, Cambridge, Mass.), in BL21 (DE-3) cells by induction with 0.8 mM isopropyl-β-D-thiogalactopyranoside at 18° C. for 20 h in M9 minimal media containing 1 g/l ^15NH4Cl as the sole nitrogen source (Cambridge Isotopes). […] Eluate was dialyzed extensively against 0.1 M NaCl/50 mM Na2PO4 (pH 6.5)/5 mM DTT at 4° C. to produce apo-G4E, as verified by using NMR spectroscopy and fluorescence titrations. […]
Fluorescence measurements were performed by using a home-built fluorimeter, as described. All titrations were performed in 0.3 M NaCl/10 mM Na2PO4 (pH 7.5)/1 μM zinc in 0.3×0.3 cm^2 fluorescence cuvette (Hellma), by using eIF4E concentration of 2 μM. […] Corrected relative fluorescence intensities were normalized, and fluorescence quenching curves were fit to a heuristic single-site-binding expression: I/I0=Kd^n/(x^n+Kd^n) where x is ligand concentration, Kd is the apparent dissociation constant, and n is the Hill coefficient.

[1] = test system: eIF4E nuclear bodies in NIH 3T3 cells; assay: subcellular eIF4E organization, confocal immunofluorescence and fractionation/Western; assay type: cell-based, mouse
Method: NIH 3T3 mouse fibroblasts were maintained under subconfluent conditions in DMEM (GIBCO/BRL)/10% (vol/vol) FBS/2 mM […]/0.1 mg/ml penicillin-streptomycin, at 37° C. in 5% CO2. For cell treatments, drugs were dissolved in PBS (pH 7.4) and filter-sterilized. Untreated cells received filter-sterilized PBS.
Cells were washed with PBS, fixed in methanol for 20 min at −20° C., and blocked in PBS, 10% (vol/vol) FBS, and 0.1% (vol/vol) Tween 20 for 30 min at room temperature. Blocked cells were stained with primary antibodies against Nopp140 [1:50 (2)], Sc35 (1:50, Becton Dickinson), and eIF4E (1:50, Transduction Laboratories) in blocking solution for 3 h at room temperature. Upon washing with PBS, cells were stained with secondary antibodies in blocking solution for 30 min. FITC-conjugated donkey anti-rabbit antibody (Jackson ImmunoResearch), Texas red-conjugated donkey anti-mouse antibody, and FITC-conjugated rabbit anti-mouse antibody, as appropriate. […] Fluorescence was observed by using 100× optical magnification and 2× digital zoom using Leica TCS-SP confocal microscope using excitation wavelengths of 488, 568, or 351/364 nm. All channels were detected separately, with no observable crosstalk. […]
Cells were washed twice with PBS and lysed by slow pipetting in 0.14 M NaCl/10 mM Tris.HCl (pH 8.4)/1.5 mM MgCl2/0.5% (vol/vol) Nonidet P-40/1 mM DTT/100 units/ml RNasin (Promega) at 4° C. […] This yielded intact nuclei, as observed by using light microscopy, with no significant cytoplasmic contamination, as evaluated using tRNA^Lys and β-actin contents. […]
Protein from whole cells or nuclear and cytoplasmic fractions was extracted by using 0.15 M NaCl/50 mM Tris.HCl (pH 7.4)/1% (vol/vol) Nonidet P-40/0.25% (wt/vol) sodium deoxycholate/1 mM EDTA/1 mM PMSF by incubating for 30 min at 4° C. […] Bound antibodies were chemiluminescently detected by using horseradish peroxidase-conjugated secondary antibodies (Amersham Pharmacia) and SuperSignal West Pico reagent according to manufacturer's instructions (Pierce).

[2] = test system: cyclin D1 protein in NIH 3T3 cells; assay: Western blot of total extracts of treated cells; assay type: cell-based, mouse
Method: Protein concentrations were determined by using bicinchoninic acid-copper reduction (Pierce) and 20-μg aliquots were resolved using SDS/PAGE, transferred to Immobilon-P membrane (Millipore), blocked, and probed by using primary antibodies against eIF4E (1:5000, Transduction Laboratories), cyclin D1 (1:500, Becton Dickinson), β-actin (1:5000, Sigma), c-myc (1:1000, Becton Dickinson), and Sc35 (1:5000, Santa Cruz Biotechnology). Bound antibodies were chemiluminescently detected by using horseradish peroxidase-conjugated secondary antibodies (Amersham Pharmacia) and SuperSignal West Pico reagent according to manufacturer's instructions (Pierce).

T1 sequence (P63073 whole entry W73A): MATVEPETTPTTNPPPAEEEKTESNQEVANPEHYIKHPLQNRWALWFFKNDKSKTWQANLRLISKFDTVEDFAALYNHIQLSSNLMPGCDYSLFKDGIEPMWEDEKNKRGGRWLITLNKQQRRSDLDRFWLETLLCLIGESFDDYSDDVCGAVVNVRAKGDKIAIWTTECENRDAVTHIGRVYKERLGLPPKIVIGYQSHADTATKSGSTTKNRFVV

Question: What does the source list for `NC(=O)c1ncn([C@@H]2O[C@H](CO)[C@@H](O)[C@H]2O)n1` [Ribavirin, 1-β-D-ribofuranosyl-1,2,4-triazole-3-carboxamide]?
Answer: effect of W73A mutation on Ribavirin affinity (eIF4E W73A): no significant effect; EC50 ([1]; Mus musculus, NIH3T3, NIH 3T3, read-out: EC50 disruption of nuclear eIF4E bodies and cytoplasmic retention of eIF4E): 100 to 1000 nM; concentration at which disruption of eIF4E nuclear bodies is evident ([1]; NIH 3T3, 48 h): 1 µM; concentration at which disruption of eIF4E nuclear bodies is nearly complete ([1]; NIH 3T3, 48 h): 10 µM; levels of B-actin and eIF4E proteins [2]: not reduced; EC50 ([2]; Mus musculus, NIH3T3, read-out: apparent EC50 reduction of cyclin D1 protein levels): 100 to 1000 nM

From patent US10472677B2, “Translational dysfunction based therapeutics” (Translational Therapeutics, Inc., priority 2005, dated 2019)
